Entries after “also recorded” stand apart in the source; their conditions may differ.
What was measured:
luciferase (Luc) mRNA [1] = assay: Luc expression (total flux) after intramuscular administration; format: in vivo, mice; conditions: for Total flux, 0.001 mpk Dose / Total flux, 0.01 mpk Dose: 6 hours after intramuscular administration
Procedure, shortened: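 Mice given a single intramuscular dose of lipid nanoparticle formulations carrying modified Luc mRNA, alone or with H10 mRNA, at 0.001 or 0.01 mpk total. Luciferase expression recorded as total flux.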

IL-6, IP-10 = assay: Cytokine induction in mice upon intravenous administration; format: in vivo; design: Cytokine induction IL-6 / Cytokine induction IP-10: unit not given here; conditions: 0.5 mpk, 6 hours; for Cytokine induction IL-6 / Cytokine induction IP-10: intravenous
Procedure, shortened: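 Mice dosed intravenously with nanoparticle compositions at 0.5 mpk; serum cytokine concentrations (IL-6, IP-10) measured at 6 hours. MC3 formulation and PBS controls run alongside.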

luciferase (Luc) mRNA [2] = assay: Luc expression in liver, lung, spleen and femur 6 hours after intravenous administration; format: in vivo; conditions: mice, 0.5 mpk; for Total Flux Femur / Total Flux Liver / Total Flux Lung / Total Flux Spleen: intravenous
Procedure, shortened: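 LNP-formulated mRNA given IV to mice (n=3) at 0.5 mpk; at 6 h, bioluminescence imaged ex vivo 15 min after IP D-luciferin (15 mg/mL, 200 μL), organs imaged within 25 min. Values are total flux by region of interest.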

luciferase (Luc) mRNA [3] = assay: Luc expression, whole body bioluminescence after intravenous administration to mice; format: in vivo; conditions: for Fold increase in total body Luc Flux relative to MC3 at 6 h: Table 3A, i.v. administration; for Total Flux 3 hours / Total Flux 6 hours / Total Flux 24 hours: i.v., 0.5 mg/kg, Luc mRNA
Procedure, shortened: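 Luc mRNA nanoparticle formulations given intravenously to mice (n=6) at 0.5 mg/kg; whole-body bioluminescence imaged at 3, 6 and 24 h. CD-1 mice received IP D-luciferin (200 μL of 15 mg/mL) 15 min before imaging; total flux quantified by region of interest.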

Compound | Total flux, 0.001 mpk Dose (luciferase (Luc) mRNA [1]; Luc mRNA and H10 mRNA) [p/s] | Total flux, 0.01 mpk Dose (luciferase (Luc) mRNA [1]; Luc mRNA and H10 mRNA) [p/s] | Fold increase in Luc expression relative to MC3, Intramuscular (0.001 mpk dose) (luciferase (Luc) mRNA [1]; intramuscular) | Fold increase in Luc expression relative to MC3, Intramuscular (0.01 mpk dose) (luciferase (Luc) mRNA [1]; intramuscular) | IP-10 induction (IL-6, IP-10; i.v., in words) | Cytokine induction IL-6 (IL-6, IP-10) | Cytokine induction IP-10 (IL-6, IP-10) | Total Flux Femur (luciferase (Luc) mRNA [2]) | Total Flux Liver (luciferase (Luc) mRNA [2]) | Total Flux Lung (luciferase (Luc) mRNA [2]) | Total Flux Spleen (luciferase (Luc) mRNA [2]) | Fold increase in total body Luc Flux relative to MC3 at 6 h (luciferase (Luc) mRNA [3]) | Fold increase in Luc expression relative to MC3, Intravenous (0.5 mpk dose) (luciferase (Luc) mRNA [3]; intravenous) | Total Flux 3 hours (luciferase (Luc) mRNA [3]; mice) | Total Flux 6 hours (luciferase (Luc) mRNA [3]; mice) | Total Flux 24 hours (luciferase (Luc) mRNA [3]; mice) | other results
CCCCCCCCCN(CCO)CCCCCCCC(=O)OC(CCCCCCCC)CCCCCCCC [Compound 3, Heptadecan-9-yl 8-((2-hydroxyethyl)(nonyl)amino)octanoate] | 3.58E+06 | 4.95E+07 | 0.51 | 1.13 | highest | 282.88 | 2052.87 | 7.36E+06 | 1.39E+10 | 4.76E+07 | 1.47E+08 | 2.24 | 2.24 | 6.55E+10 | 7.37E+10 | 4.96E+09 | IL-6 induction (IL-6, IP-10; i.v., in words): highest; Flux in the liver (luciferase (Luc) mRNA [2]; i.v., in words): highest
CCCCCCCCCOC(=O)CCCCCCCN(CCO)CCCCCC(=O)OC(CCCCCCCC)CCCCCCCC [Compound 27, Nonyl 8-((6-(heptadecan-9-yloxy)-6-oxohexyl)(2-hydroxyethyl)amino) octanoate] | 2.55E+06 | 3.17E+07 |  |  |  | 161.07 | 345.56 | 2.00E+06 | 2.16E+09 | 6.35E+06 | 3.78E+06 | 0.31 |  | 1.64E+10 | 1.03E+10 | 1.94E+09 | 
CCCCCCCCC(CCCCCCCC)OC(=O)CCCCCCCN(CCO)CCCCCC [Compound 5, Heptadecan-9-yl 8-(hexyl(2-hydroxyethyl)amino)octanoate] | 9.84E+05 | 3.55E+06 |  |  |  | 94.07 | 487.16 | 1.22E+06 | 5.84E+07 | 1.89E+06 | 1.55E+08 | 0.005 |  | 2.77E+08 | 1.76E+08 | 2.40E+07 | 
CCCCCCCCC(CCCCCCCC)OC(=O)CCCCCCCN(CCO)CCCCCCCC(=O)OC(CCCCCCCC)CCCCCCCC [Compound 29, Di(heptadecan-9-yl) 8,8′-((2-hydroxyethyl)azanediyl)dioctanoate] | 7.64E+05 | 1.12E+07 | 0.11 | 0.25 |  | 69.54 | 1362.81 | 9.56E+05 | 5.20E+08 | 9.83E+05 | 5.99E+06 | 0.78 | 1.03 | 4.61E+09 | 2.89E+09 | 3.55E+08 | luciferase activity relative to MC3 LNP control (luciferase (Luc) mRNA [3]; mice, intravenous, 0.5 mg/kg (mRNA dose)): lower luciferase activity
CCCCCCCCCOC(=O)CCCCCCCN(CCCCO)CCCCCCCC(=O)OC(CCCCCCCC)CCCCCCCC [Compound 20, Heptadecan-9-yl 8-((4-hydroxybutyl)(8-(nonyloxy)-8-oxooctyl)amino) octanoate] | 2.59E+07 |  | 3.70 | 2.21 | highest | 126.83 | 2468.24 | 1.31E+07 | 1.84E+09 | 2.66E+07 | 1.43E+08 | 0.80 | 0.80 | 1.71E+10 | 2.48E+10 | 5.40E+08 | Luc expression upon intramuscular administration (luciferase (Luc) mRNA [1]; Luc mRNA and H10 mRNA, doses of 0.001 and 0.01 mpk, in words): highest expression at both dose levels; also recorded: equivalent expression to the high dose of MC3; fold increase in Luc expression over MC3 formulations (luciferase (Luc) mRNA [1]; intramuscular administration, in words): highest fold increase; Novel lipid/MC3 expression ratio, 6 hr. time point, i.m. Luc (luciferase (Luc) mRNA [1]; intramuscular, relative to MC3 formulation): 2.21
